Test results taken from patent US20230407245A1, “Media and methods for establishing and maintaining early embryo-like cells” (BGI SHENZHEN GROUP HOLDINGS CO., LIMITED, priority 2020, published 2023).

System: primed human PSCs
Test: Conversion of primed human PSCs to ICLCs, RT-qPCR of preimplantation ICM markers
Type: cell-based
Conditions: for expression of preimplantation ICM markers (RT-qPCR) in ICLCs with a different dosage of one component, compared to primed human PSCs: H9, 4CL medium 1 with PD0325901 0.5 μM, TSA 20 nM, DZNep 5, 20 or 50 nM
Description: All provided human PSCs were routinely maintained on Matrigel™ or Geltrex™ coated plates in mTeSR1 or E8 medium. Generally, cells were passaged every 4 to 5 days with 0.5 mM EDTA. For passaging, cells were washed with PBS once and treated with 0.5 mM EDTA for 5 mins. Then, EDTA was removed and cells were detached as small clumps using a Pasteur pipette with mTeSR1 or E8 medium. Primed human PSCs were grown in an incubator under normoxic conditions (37° C., 5% CO2).
One day before initiation of conversion, primed human PSCs were washed with PBS once and dissociated into single cells and plated at a density of 1,000 to 1,500 cells/cm 2 on feeder in mTeSR1 or E8 medium supplemented with 10 μM Y27632. Twenty-four hours later, culture medium was switched to 4CL medium 1. The culture medium was refreshed with the same medium every 24 hours. Colonies became round and domed-shape in 24 to 48 hours. Cells were passaged every 3 to 4 days. For passaging, cells were dissociated into single cells using TrypLE: 0.5 mM EDTA (1:1) and plated at a density of 1,000 to 1,500 cells/cm 2 on feeder (feeders were seeded on Geltrex™/Matrigel™ pre-treated plate) (FIG. 1). The ICLCs induction and maintenance can be conducted under hypoxic condition (37° C., 5% CO2, 5% O2), or normoxic condition (37° C., 5% CO2, 21% O2) (FIG. 34), preferably hypoxia condition.
Using the same procedures of example 1, except plating cells on 1% (v/v) Geltrex™ in DMEM-F12 (cat #) coated plates instead of on feeder cells.
Primed human PSCs were cultured following the same procedures of example 1. One day before initiation of the conversion, primed human PSCs were dissociated into single cells and plated 60,000 cells/well in Aggrewell™ 800 plates using mTeSR1 or E8 medium supplemented with 10 μM Y27632. Twenty-four hours later, culture medium was changed into 4CL medium 1, culture condition was then switched to hypoxic condition. Cells formed small spheres in 3 days. The spheres were then lifted and transferred to flasks (Greiner Bio-One, 658190) for suspension culture. Medium was refreshed daily. Cells were passaged every 4 to 5 days. For passaging, cells were dissociated into single cells using TrypLE: 0.5 mM EDTA (1:1), then cells were resuspended in 4CL medium 1 at a density of 150,000 cells/ml. The resuspended cells were added into flasks (Greiner Bio-One, 658190) for suspension culture. Cells formed small aggregates in 24 hours. Generally, cells were converted to ICLCs in approximately 3 weeks after initiation.
Same as example 1, but different dosages of either PD0325901, DZNep, or TSA were also used: PD0325901, 0.5 μM; TSA, 20 nM; DZNep, 5 nM, 20 nM or 50 nM.

| Compound | expression of preimplantation ICM markers (RT-qPCR) in ICLCs with a different dosage of one component, compared to primed human PSCs | expression levels of ICM specific genes such as DNMT3L, STELLA, DPPA5, KLF17 (final concentration of 40 to 70 ng/mL) |
| --- | --- | --- |
| Nc1nccc2c1ncn2[C@@H]1C=C(CO)[C@@H](O)[C@H]1O [DZNep, 3-deazaneplanocin A] | significantly induced |  |
| O=C1O[C@H]([C@@H](O)CO)C(O)=C1O [L-ascorbic acid] |  | potently increases |
| O=C(NOC[C@H](O)CO)c1ccc(F)c(F)c1Nc1ccc(I)cc1F [PD0325901] | significantly induced |  |
| CC(/C=C/C(=O)NO)=C\[C@@H](C)C(=O)c1ccc(N(C)C)cc1 [TSA, trichostatin A] | significantly induced |  |
